Structures are written as SMILES.

In the first test the test system is acetohydroxy acid synthase. Kind of test: Acetohydroxy acid synthase activity of crude enzyme solution from transformant AJ12403/pAJ220V3, with amino acid added (feedback inhibition). In kind it is biochemical, Brevibacterium lactofermentum. Particulars: Amino acid added (5mM); crude enzyme of strain AJ12403/pAJ220V3; 65mM phosphate buffer, 100mM sodium pyruvate. An excerpt:
(§1) In order to confirm that the DNA donor strain or transformant imparted with resistance to antagonist contains a mutant-type gene that codes for acetohydroxy acid synthase with reduced feedback inhibition by L-valine, L-leucine or L-isoleucine, it is necessary to prepare an enzyme solution from that antagonist-resistant strain or transformant, to allow this solution to act upon pyruvic acid ( as substrate ) in the presence of L-valine, L-leucine or L-isoleucine, and to measure the amount of 2-acetolactic acid formed.
(§2) A strain being tested was cultivated in production medium (A) for about 18 hours, the grown cells were ultrasonicated, and the resulting solution was centrifuged at 15,000 r.p.m. for 20 minutes.
(§3) The supernatant thus obtained was used as a crude enzyme solution, which was added to a solution containing 65mM phosphate buffer and 100mM sodium pyruvate to effect enzymic reaction. Acetolactic acid thus formed was converted to acetoin, and the color developed by addition of 2-naphthol was measured at 530 nm.
With `CC[C@H](C)[C@H](N)C(=O)O` [L-Ile, L-isoleucine], the “relative activity values (%) when the activity in the absence of amino acid is taken as 100” value (“relative activity values (%)” below) came to 101%.

As to `CC(C)C[C@H](N)C(=O)O` [L-Leu, L-leucine], the “relative activity values (%)” value worked out at 119%.

`CC(C)[C@H](N)C(=O)O` [L-Val, L-valine]: the “relative activity values (%)” value was determined as 108%.

For the next test, the system named is acetohydroxy acid synthase. The test can be described thus: Acetohydroxy acid synthase activity of crude enzyme solution from wild-type strain ATCC13869, with amino acid added (feedback inhibition). Type of test: biochemical, Brevibacterium lactofermentum. The note with it: Amino acid added (5mM), 65mM phosphate buffer, 100mM sodium pyruvate.
Text: as §1, §2, §3
For `CC[C@H](C)[C@H](N)C(=O)O` [L-Ile, L-isoleucine], the “relative activity values (%)” value was found to be 60%.

Take `CC(C)C[C@H](N)C(=O)O` [L-Leu, L-leucine]: the “relative activity values (%)” value stood at 67%.

On to `CC(C)[C@H](N)C(=O)O` [L-Val, L-valine], for which the “relative activity values (%)” value is reported as 60%.

The record behind these values is patent EP0356739B1, “Recombinant DNA, microorganism carrying said recombinant DNA, and process for producing L-amino acids by the use of said microorganism” (AJINOMOTO CO., INC., priority 1988, dated 1990).
